Assay results taken from patent publication US20050096278A1, “Antibacterial agents” (priority 2003, published 2005).
In brackets after ≈: the same amount, converted by molar mass.

Columns and labels:
E. faecalis MGH-2 = test: Antibacterial assay (standard microtitration), MIC; format: cell-based; details: Enterococcus faecalis, MGH2; Gram Positive Bacteria; Table 1B; read-out: Minimum Inhibitory Concentrations, E. faecalis MGH-2
Procedure: (§1) Test A—Antibacterial Assays
(§2) The compounds of the present invention were tested against an assortment of Gram-negative and Gram-positive organisms using standard microtitration techniques (Cohen et. al., Antimicrob., 1985;28:766; Heifetz, et. al., Antimicrob., 1974;6:124). The results of the evaluation are shown in Tables 1A and B. In the tables, “—” means no data.

S pyogenes C203 = test: Antibacterial assay (standard microtitration), MIC; format: cell-based; details: Gram Positive Bacteria; Table 1B; read-out: Minimum Inhibitory Concentrations, S pyogenes C203
Procedure: as §1, §2

S. aureus UC-76 = test: Antibacterial assay (standard microtitration), MIC; format: cell-based; details: Staphylococcus aureus, UC76, Gram Positive Bacteria; Table 1B; read-out: Minimum Inhibitory Concentrations, S. aureus UC-76
Procedure: as §1, §2

E. coli MC4100 = test: Antibacterial assay (standard microtitration), MIC; format: cell-based; details: Gram Negative Bacteria, Table 1A; for MIC: Escherichia coli, MC4100, read-out: Minimum Inhibitory Concentrations, E. coli MC4100
Procedure: as §1, §2

H. influenzae HI-3542 = test: Antibacterial assay (standard microtitration), MIC; format: cell-based; details: Gram Negative Bacteria, Table 1A; for MIC: Haemophilus influenzae, HI3542, read-out: Minimum Inhibitory Concentrations, H. influenzae HI-3542
Procedure: as §1, §2

M. catarrhalis BC-3531 = test: Antibacterial assay (standard microtitration), MIC; format: cell-based; details: Moraxella catarrhalis, BC3531; Gram Negative Bacteria; Table 1A; read-out: Minimum Inhibitory Concentrations, M. catarrhalis BC-3531
Procedure: as §1, §2

| SMILES | MIC (E. coli MC4100) | MIC (H. influenzae HI-3542) | MIC (M. catarrhalis BC-3531) | other results |
| --- | --- | --- | --- | --- |
| COc1c(N2CCC(O)(CO)CC2)c(F)cc2c(=O)c(C(=O)O)cn(C3CC3)c12 |  |  |  | melting point: 200 to 210 °C (dec.) |
| COc1c(N2CCC(O)C(CO)C2)c(F)cc2c(=O)c(C(=O)O)cn(C3CC3)c12 (stereo not drawn) |  |  |  | melting point: 115 to 125 °C |
| COc1c(N2CCC(C(O)CO)CC2)c(F)cc2c(=O)c(C(=O)O)cn(C3CC3)c12 (stereo not drawn) |  |  |  | melting point: 200 to 204 °C |
| COc1c(N2CCC(C(O)CCO)CC2)c(F)cc2c(=O)c(C(=O)O)cn(C3CC3)c12 (stereo not drawn) |  |  |  | melting point: 210 to 214 °C |
| Cc1c(N2CCC(O)C(CO)C2)c(F)cc2c(=O)c(C(=O)O)cn(C3CC3)c12 (stereo not drawn) |  |  |  | MIC (E. faecalis MGH-2): 0.25 µg/mL (≈ 0.64 µM); MIC (S pyogenes C203): 0.25 µg/mL (≈ 0.64 µM); MIC (S. aureus UC-76): 0.015 µg/mL (≈ 0.0384 µM) |
| COc1c(N2CCC(CCO)CC2)c(F)cc2c(=O)c(C(=O)O)cn(C3CC3)c12 |  |  |  | MIC (E. faecalis MGH-2): 0.125 µg/mL (≈ 0.309 µM); MIC (S pyogenes C203): 0.25 µg/mL (≈ 0.618 µM); MIC (S. aureus UC-76): 0.015 µg/mL (≈ 0.0371 µM) |
| COc1c(N2CCC(O)C(CO)C2)c(F)cc2c(=O)c(C(=O)O)cn(C3CC3)c12 (stereo not drawn) [drawing 324] | 0.25 µg/mL (≈ 0.615 µM) | 0.015 µg/mL (≈ 0.0369 µM) | 0.125 µg/mL (≈ 0.308 µM) |  |
| COc1c(N2CCC3(CC2)OCCO3)c(F)cc2c(=O)c(C(=O)O)cn(C3CC3)c12 [drawing 325] | 0.5 µg/mL (≈ 1.19 µM) | 0.06 µg/mL (≈ 0.143 µM) | 0.06 µg/mL (≈ 0.143 µM) |  |
| Cc1c(N2CCC(CCO)CC2)c(F)cc2c(=O)c(C(=O)O)cn(C3CC3)c12 [drawing 326] | 0.06 µg/mL (≈ 0.154 µM) | 0.03 µg/mL (≈ 0.0772 µM) | 0.015 µg/mL (≈ 0.0386 µM) |  |
| COc1c(N2CCC(C(O)CO)CC2)c(F)cc2c(=O)c(C(=O)O)cn(C3CC3)c12 (stereo not drawn) [drawing 327] | 0.125 µg/mL (≈ 0.297 µM) | 0.03 µg/mL (≈ 0.0714 µM) | 0.06 µg/mL (≈ 0.143 µM) |  |
| COc1c(N2CCC(O)(CO)CC2)c(F)cc2c(=O)c(C(=O)O)cn(C3CC3)c12 [drawing 328] | 0.25 µg/mL (≈ 0.615 µM) | 0.015 µg/mL (≈ 0.0369 µM) | 0.125 µg/mL (≈ 0.308 µM) |  |
| COc1c(N2CCC(CO)CC2)c(F)cc2c(=O)c(C(=O)O)cn(C3CC3)c12 [drawing 329] | 0.125 µg/mL (≈ 0.32 µM) | 0.015 µg/mL (≈ 0.0384 µM) | 0.015 µg/mL (≈ 0.0384 µM) |  |
| Cc1c(N2CCC(O)C(C)(C)C2)c(F)cc2c(=O)c(C(=O)O)cn(C3CC3)c12 (stereo not drawn) [drawing 330] | 2 µg/mL (≈ 5.15 µM) | 0.125 µg/mL (≈ 0.322 µM) | 0.5 µg/mL (≈ 1.29 µM) |  |
| COc1c(N2CCC(O)C(C)(C)C2)c(F)cc2c(=O)c(C(=O)O)cn(C3CC3)c12 (stereo not drawn) [drawing 331] | 0.25 µg/mL (≈ 0.618 µM) | 0.125 µg/mL (≈ 0.309 µM) | 0.125 µg/mL (≈ 0.309 µM) |  |
| COc1c(N2CCC(O)C(C)C2)c(F)cc2c(=O)c(C(=O)O)cn(C3CC3)c12 (stereo not drawn) [drawing 332] | 0.25 µg/mL (≈ 0.64 µM) | 0.03 µg/mL (≈ 0.0768 µM) | 0.03 µg/mL (≈ 0.0768 µM) |  |
| COc1c(N2CCC(O)(c3ccccc3)CC2)c(F)cc2c(=O)c(C(=O)O)cn(C3CC3)c12 [drawing 333] | 32 µg/mL (≈ 70.7 µM) | 2 µg/mL (≈ 4.42 µM) | 1 µg/mL (≈ 2.21 µM) |  |
| COc1c(N2CCCC(C(O)CO)C2)c(F)cc2c(=O)c(C(=O)O)cn(C3CC3)c12 (stereo not drawn) [drawing 334] | 1 µg/mL (≈ 2.38 µM) | 0.125 µg/mL (≈ 0.297 µM) | 0.25 µg/mL (≈ 0.595 µM) |  |
| COc1c(N2CCCC(CO)C2)c(F)cc2c(=O)c(C(=O)O)cn(C3CC3)c12 (stereo not drawn) [drawing 335] | 0.25 µg/mL (≈ 0.64 µM) | 0.03 µg/mL (≈ 0.0768 µM) | 0.06 µg/mL (≈ 0.154 µM) |  |
| COc1c(N2CCCC(O)(CO)C2)c(F)cc2c(=O)c(C(=O)O)cn(C3CC3)c12 (stereo not drawn) [drawing 336] | 1 µg/mL (≈ 2.46 µM) | 0.03 µg/mL (≈ 0.0738 µM) | 0.5 µg/mL (≈ 1.23 µM) |  |
| COc1c(N2CCC(O)C(C)C2)c(F)cc2c(=O)c(C(=O)O)cn(C3CC3)c12 (stereo not drawn) [drawing 337] |  |  |  | Minimum Inhibitory Concentrations, E. coli MC4100 (E. coli MC4100): 0.25 µg/mL; Minimum Inhibitory Concentrations, H. influenzae HI-3542 (H. influenzae HI-3542): 0.03 µg/mL |
